Test system: U-87 MG tumor-bearing mice
Experiment: Biodistribution in U-87 MG tumor-bearing mice with IPBA
Assay type: in vivo
Details: IPBA 10 eq at 1 h postinjection
Protocol: To prepare tumor-bearing mice, 5 × 10^6 of U-87 MG cells were subcutaneously inoculated into the right shoulder of 4-week-old female BALB/c nude mice (13–15 g, Japan SLC, Inc.) as previously reported. At approximately 10-day postinoculation of U-87 MG cells, they were used for each experiment after tumor size reached 0.3–0.5 cm^3.
At 1-h postinjection of [^211At]1 (37 kBq) and [^125I]2 (37 kBq), IPBA (1.9 mg, 6.1 µmol) was administered at 10 molar equivalent of blood albumin. Mice were sacrificed at 65-, 70-min, 2-, 4-, 12-, and 24-h postinjection of [^211At]1 and [^125I]2. Tissues of interest were removed and weighed, and radioactivity counts of ^125I and ^211At were determined with an auto well gamma counter (ARC-7010; Hitachi Medical, Ltd., Tokyo, Japan) and corrected for background radiation. To determine the radioactivity excreted from the body for 24 h, mice were housed in metabolic cages (Metabolica, Sugiyama-Gen Co., Ltd., Tokyo, Japan).

Radioactivity, Bone (65 min after administration): 4.94 (1.52) % injected activity per gram
Radioactivity, Brain (65 min after administration): 0.31 (0.02) % injected activity per gram
Radioactivity, Heart (65 min after administration): 4.77 (0.10) % injected activity per gram
Radioactivity, L. intestine (65 min after administration): 3.10 (0.11) % injected activity per gram
Radioactivity, Muscle (65 min after administration): 2.62 (0.24) % injected activity per gram
Radioactivity, Neck (65 min after administration): 0.05 (0.01)^ * % injected activity
Radioactivity, Pancreas (65 min after administration): 2.66 (0.10) % injected activity per gram
Radioactivity, Spleen (65 min after administration): 3.95 (0.26) % injected activity per gram
Radioactivity, Stomach (65 min after administration): 1.33 (0.31) % injected activity
Radioactivity, Bone (70 min after administration): 2.30 (0.36) % injected activity per gram
Radioactivity, Brain (70 min after administration): 0.24 (0.04) % injected activity per gram
Radioactivity, L. intestine (70 min after administration): 2.29 (0.24) % injected activity per gram
Radioactivity, Muscle (70 min after administration): 1.53 (0.18) % injected activity per gram
Radioactivity, Neck (70 min after administration): 0.06 (0.01) % injected activity
Radioactivity, Spleen (70 min after administration): 2.83 (0.36) % injected activity per gram
Radioactivity, Stomach (70 min after administration): 0.78 (0.15) % injected activity
Radioactivity, Bone (2 h after administration): 2.73 (0.47) % injected activity per gram
Radioactivity, Brain (2 h after administration): 0.24 (0.02) % injected activity per gram
Radioactivity, Kidney (2 h after administration): 8.39 (0.51) % injected activity per gram
Radioactivity, L. intestine (2 h after administration): 2.48 (1.12) % injected activity per gram
Radioactivity, Neck (2 h after administration): 0.08 (0.04) % injected activity
Radioactivity, Pancreas (2 h after administration): 1.68 (0.36) % injected activity per gram
Radioactivity, S. intestine (2 h after administration): 2.41 (0.71) % injected activity per gram
Radioactivity, Spleen (2 h after administration): 2.33 (0.14) % injected activity per gram
Radioactivity, Stomach (2 h after administration): 0.77 (0.08) % injected activity
Radioactivity, Bone (4 h after administration): 1.46 (0.16) % injected activity per gram
Radioactivity, Brain (4 h after administration): 0.18 (0.01) % injected activity per gram
Radioactivity, Heart (4 h after administration): 1.22 (0.12) % injected activity per gram
Radioactivity, Liver (4 h after administration): 1.32 (0.06) % injected activity per gram
Radioactivity, Neck (4 h after administration): 0.05 (0.04) % injected activity
Radioactivity, Pancreas (4 h after administration): 0.72 (0.15) % injected activity per gram
Radioactivity, S. intestine (4 h after administration): 3.09 (0.79) % injected activity per gram
Radioactivity, Stomach (4 h after administration): 0.65 (0.09) % injected activity
Radioactivity, Neck (12 h after administration): 0.06 (0.02)^ * % injected activity
Radioactivity, Stomach (12 h after administration): 0.39 (0.02)^ ** % injected activity
Radioactivity, Bone (24 h after administration): 0.48 (0.04) % injected activity per gram
Radioactivity, Brain (24 h after administration): 0.05 (0.01) % injected activity per gram
Radioactivity, Heart (24 h after administration): 0.92 (0.58) % injected activity per gram
Radioactivity, Kidney (24 h after administration): 1.67 (0.24) % injected activity per gram
Radioactivity, L. intestine (24 h after administration): 0.38 (0.22) % injected activity per gram
Radioactivity, Lung (24 h after administration): 1.58 (0.42) % injected activity per gram
Radioactivity, Muscle (24 h after administration): 0.26 (0.02) % injected activity per gram
Radioactivity, Neck (24 h after administration): 0.03 (0.00) % injected activity
Radioactivity, Pancreas (24 h after administration): 0.27 (0.05) % injected activity per gram
Radioactivity, S. intestine (24 h after administration): 0.26 (0.11) % injected activity per gram
Radioactivity, Stomach (24 h after administration): 0.20 (0.04)^ * % injected activity
Radioactivity excreted, Feces (until 24 h postinjection): 8.40 (3.14) % injected activity
Radioactivity excreted, Urine (until 24 h postinjection): 56.09 (4.93)^ ** % injected activity
Substance: Ga-DOTA-K([^125I]IPBA)-c(RGDfK) [[^125I]2]
Radioactivity, Blood (65 min after administration): 11.19 (0.16)^ ** % injected activity per gram
Radioactivity, Kidney (65 min after administration): 17.52 (1.13)^ * % injected activity per gram
Radioactivity, Liver (65 min after administration): 5.29 (0.52)^ * % injected activity per gram
Radioactivity, Lung (65 min after administration): 10.10 (0.52)^ ** % injected activity per gram
Radioactivity, S. intestine (65 min after administration): 4.93 (0.21)^ * % injected activity per gram
Radioactivity, Tumor (65 min after administration): 11.58 (0.32)^ * % injected activity per gram
Radioactivity, Blood (70 min after administration): 7.91 (0.45)^ *** % injected activity per gram
Radioactivity, Heart (70 min after administration): 3.25 (0.25)^ ** % injected activity per gram
Radioactivity, Kidney (70 min after administration): 11.87 (1.35)^ *** % injected activity per gram
Radioactivity, Liver (70 min after administration): 3.64 (0.49)^ * % injected activity per gram
Radioactivity, Lung (70 min after administration): 6.75 (0.74)^ ** % injected activity per gram
Radioactivity, Pancreas (70 min after administration): 1.82 (0.14)^ * % injected activity per gram
Radioactivity, S. intestine (70 min after administration): 3.77 (0.37)^ ** % injected activity per gram
Radioactivity, Tumor (70 min after administration): 11.24 (1.19)^ ** % injected activity per gram
Radioactivity, Blood (2 h after administration): 5.69 (0.44)^ *** % injected activity per gram
Radioactivity, Heart (2 h after administration): 2.24 (0.23)^ ** % injected activity per gram
Radioactivity, Liver (2 h after administration): 2.31 (0.17)^ * % injected activity per gram
Radioactivity, Lung (2 h after administration): 4.74 (0.12)^ * % injected activity per gram
Radioactivity, Muscle (2 h after administration): 1.73 (0.60)^ * % injected activity per gram
Radioactivity, Tumor (2 h after administration): 14.36 (1.54)^ ** % injected activity per gram
Radioactivity, Blood (4 h after administration): 1.71 (0.12)^ ** % injected activity per gram
Radioactivity, Kidney (4 h after administration): 5.00 (0.36)^ ** % injected activity per gram
Radioactivity, L. intestine (4 h after administration): 4.61 (1.33)^ ** % injected activity per gram
Radioactivity, Lung (4 h after administration): 2.31 (0.06)^ *** % injected activity per gram
Radioactivity, Muscle (4 h after administration): 0.52 (0.05)^ * % injected activity per gram
Radioactivity, Spleen (4 h after administration): 1.83 (0.10)^ * % injected activity per gram
Radioactivity, Tumor (4 h after administration): 12.42 (0.89) % injected activity per gram
Radioactivity, Blood (12 h after administration): 1.65 (0.20)^ *** % injected activity per gram
Radioactivity, Bone (12 h after administration): 0.72 (0.09)^ * % injected activity per gram
Radioactivity, Brain (12 h after administration): 0.07 (0.01)^ ** % injected activity per gram
Radioactivity, Heart (12 h after administration): 1.02 (0.07)^ ** % injected activity per gram
Radioactivity, Kidney (12 h after administration): 2.71 (0.17)^ *** % injected activity per gram
Radioactivity, L. intestine (12 h after administration): 0.75 (0.05)^ *** % injected activity per gram
Radioactivity, Liver (12 h after administration): 0.70 (0.08)^ *** % injected activity per gram
Radioactivity, Lung (12 h after administration): 2.07 (0.11)^ *** % injected activity per gram
Radioactivity, Muscle (12 h after administration): 0.37 (0.01)^ *** % injected activity per gram
Radioactivity, Pancreas (12 h after administration): 0.50 (0.02)^ ** % injected activity per gram
Radioactivity, S. intestine (12 h after administration): 0.68 (0.10)^ *** % injected activity per gram
Radioactivity, Spleen (12 h after administration): 1.03 (0.05)^ ** % injected activity per gram
Radioactivity, Tumor (12 h after administration): 7.08 (0.74)^ ** % injected activity per gram
Radioactivity, Blood (24 h after administration): 1.55 (0.17)^ * % injected activity per gram
Radioactivity, Liver (24 h after administration): 0.56 (0.10)^ * % injected activity per gram
Radioactivity, Spleen (24 h after administration): 0.72 (0.16)^ * % injected activity per gram
Radioactivity, Tumor (24 h after administration): 5.51 (0.05)^ * % injected activity per gram

— article PMC11224111, “Optimizing the pharmacokinetics of an ^211At-labeled RGD peptide with an albumin-binding moiety via the administration of an albumin-binding inhibitor” (European Journal of Nuclear Medicine and Molecular Imaging, 2024)
